This is an account of results in article PMC4326127, “Collagen Inhibitory Peptide R1R2 Mediates Vascular Remodeling by Decreasing Inflammation and Smooth Muscle Cell Activation” (PLoS ONE, 2015).

Entries after “also recorded” stand apart in the source; their conditions may differ.

The subject of test [1] is binding of FN to collagen type I. The test is described as follows: Solid-phase binding assay (competitive ELISA) of FN to collagen. On the set-up: species or system human FN; rat collagen type I. As to conditions: 4 nM FN incubated with peptide at 4°C overnight, then on wells coated with 10 μg/ml collagen I overnight at 37°C; anti-FN/HRP, ABTS, A405. On the technique in general: In an ELISA, binding on a coated surface is turned into a signal by an enzyme label.
Description: Human FN and rat collagen type I for competitive ELISA were purchased from Sigma-Aldrich (St. Louis, MO).
The FN-peptide solutions were added to collagen or BSA-coated wells, and the plates were incubated overnight at 37°C. The wells were washed and a rabbit anti-FN antibody was added for 90 minutes at room temperature. Wells were washed and then incubated with a horseradish peroxidase-conjugated secondary antibody. After washing was completed, peroxidase activity was quantified using 2,2'-azino-bis-(3-ethylbenthiazoline-6-sulfonic acid). Measurements were done at 405 nm (A405) using a SpectraMax M5 microplate reader (Molecular Device, Sunnyvale, CA).
Bound FN was detected with an anti-FN antibody followed by HRP-conjugated secondary antibody, and ABTS as described in Methods. The absorbance at 405nm was quantitated.

Test [2] concerns A7r5 SMCs. Description: A7r5 SMC growth study. In kind it is cell-based. Here is the method: (§1) Human umbilical vein endothelial cells (HUVECs) and A7r5 SMCs were provided by Resource Center (SB3, NSC 100-2325-B-080-001), National Research Program for Biopharmaceuticals (Hsinchu, Taiwan). HUVECs were maintained in M199 (Life Technologies, Carlsbad, CA) with 25U/ml heparin (Sigma-Aldrich, St. Louis, MO), 10% fetal bovine serum (FBS) and endothelial cell growth supplement (ECGS; Millipore, Billerica, MA). A7r5 SMCs were grown in Dulbecco’s Modified Eagle’s Medium (DMEM) containing high glucose, supplemented with 10% fetal bovine serum. Human U937 cells were grown in RPMI1640 with 10% FBS.
(§2) A7r5 cells and HUVECs were growth-arrested and then stimulated with 10% FBS or 10 ng/ml TNF-αovernight after serum starvation as indicated in the figure legend. Briefly, trypan blue-excluding cells were counted with a hemocytometer, and data were analyzed using GraphPad Prism Software (San Diego, CA) as in previous studies. A second observer performed a similar analysis to verify the initial findings.
(§3) For in vivo experiments, the data are shown as the mean ± SEM. For in vitro experiments, the data shown are the means ± SD of a representative experiment, at least 3 independent experiments were performed. One-way ANOVA with post-hoc testing were used for data analysis with GraphPad Prism software (GraphPad, San Diego, CA). If normality test failed, nonparametric Kruskal-Wallis test followed by Dunn's post-hoc test were used. P > 0.05 was not considered significant.
Fig 6 R1R2 reduces SMC proliferation and migration. (A) A7r5 SMC growth study over 96 hours. After serum starvation and treatment with R1R2 or scrambled peptides for 36 hours, cells were stimulated with 10% FBS over 96 hours. Cells were counted at the indicated time in the figure (n = 5). (B) A7r5 SMCs were pretreated with R1R2 or scramble peptide for 36 hours. […] (C) Quantitation of SMC migration in the scratch wound healing assay was performed by subtracting the cell-free area 30 hours after PDGF-BB stimulation from the cell-free area in the beginning (n = 5). * indicates p<0.05 and ** p< 0.01.

The subject of test [3] is U937 cells / HUVECs. Description: Monocyte U937 adhesion to HUVECs. The class given is cell-based, human. The settings on record: HUVECs treated with 10 ng/ml TNF-α; calcein-AM U937 5x10^5 cells/well, 30 minutes at 37°C; fluorescence 485/535; mean ± SD. Here is the method: as §3
For the next test, the system named is FN fibril. As to conditions: in vitro; ref [29]; cited from earlier work. From the text: Therefore, we used the experimental group treated with scrambled peptide as the control group. In Fig. 3A and 3B, IHC analysi ... || In vitro studies have shown that FN is required as a scaffold for collagen deposition. Inhibiting FN polymerization with antibodies or inhibitors prevents FN and collagen fibril deposition into the ECM in vitro [27, 31].

Test [4] relates to A7r5 SMCs. The test is described as follows: SMC migration, scrape wound assay. The class given is cell-based. Here is the method:
as §1
A scrape wound assay was used to assess the effect of R1R2 and scrambled peptides on SMC migration as described. Briefly, A7r5 SMCs were grown until 90% confluent, followed by serum starvation and treatment with R1R2 and scrambled peptides for 36 hours. Several scrape wounds were then performed across the dish with a sterile yellow pipet tip. We initiated the experiment with treatment of cells with 10 ng/ml PDGF-BB. Photographs of the wound area were taken immediately after PDGF-BB addition (0 hour) and 30 hours postwounding with an Olympus CKX-41 microscope connected to a camera. At least three photographs were taken per group at each time point. Wound areas were determined using Image-Pro Software (Media Cybernetics, MD). Measurement of migration was determined by subtracting the cell-free area 30 hours after PDGF-BB addition from the cell-free area in the beginning of scrape wounds.
For in vivo experiments, the data are shown as the mean ± SEM. For in vitro experiments, the data shown are the means ± SD of a representative experiment, at least 3 independent experiments were performed. […]
Fig 6 R1R2 reduces SMC proliferation and migration. […] Cells were counted at the indicated time in the figure (n = 5). […] (C) Quantitation of SMC migration in the scratch wound healing assay was performed by subtracting the cell-free area 30 hours after PDGF-BB stimulation from the cell-free area in the beginning (n = 5). * indicates p<0.05 and ** p< 0.01.

The next test relates to HUVECs. Description: HUVEC proliferation assay. In kind it is cell-based, human. The settings on record: at the start of the adhesion assay, versus control peptide; data not shown; in words. Here is the method: as §1, §2
For test [5], the system named is left common carotid artery (flow-induced vascular remodeling). Description: Morphometric analysis of carotid artery after complete common carotid ligation. In kind it is in vivo, FVB/NJ (FVB) mice. As to conditions: for EEL Area / Intima+Media / Intima/Media Ratio / Lumen: 20 μM peptide in 50 μl F-127 pluronic gel, mean ± SEM.
Description: (§4) Animals were anesthetized with isoflurane inhalation. The left common carotid artery was exposed, dissected free from the surrounding connective tissue and completely ligated with 6-0 silk suture just proximal to the carotid bifurcation. […] 4–10 mice were included in each experimental group.
5 groups of animals were processed for morphometric analysis. Mice were fixed with 10% formalin 7 or 14 days after the surgery. The common carotid arteries were harvested and embedded in paraffin.
as §3

A further test relates to FN. The test is described as follows: IHC for FN in ligated carotid artery. In kind it is in vivo, FVB/NJ (FVB) mice. As to conditions: for FN IHC intensity in intima-media area: mean ± SEM. Here is the method: as §4
Paraffin sections selected from the first mm of the carotid artery in each group were used for immunohistochemistry (IHC). […] Sections were then incubated with appropriate biotinylated secondary antibodies followed by avidin-biotin immunoperoxidase system (Vector Laboratories, Burlingame, CA). Liquid DAB Substrate Chromogen system (Dako, Carpinteria, CA) was used for detection.
Quantitative IHC analysis was performed on digital images captured with a 20x objective by using Image-Pro Plus software. Data from 3–6 mice for each group were averaged, and the average values ± SEM were shown. For FN, collagen type I, SM-MHC and SM α-actin, color digital images were transformed into gray scale, and the sum of the optical densities from the intima+media area in each section was determined. […] The percent of positive cells is reported as the proliferation index. […] The intima+media region was traced manually. The percent of positively stained area in intima+media to the total traced area was assessed.
as §3

For test [6], the system named is U937 cells / HUVECs. Description: Monocyte U937 transendothelial migration assay. In kind it is cell-based, human. The settings on record: HUVECs on 5um transwells, 10 ng/ml TNF-α; U937 1.5x10^5 cells/transwell, 1.5 hours at 37°C; fluorescence 485/535; mean ± SD. Here is the method:
as §3

[7] abbreviates: 7 day after ligation, periadventitial, scrambled n = 4, R1R2 n = 10.
Setting [8] is: 14 day after ligation, periadventitial, scrambled n = 4, R1R2 n = 9.

With “GLNGENQKEPEQGERGEAGPPLSGLSGNNQGRPSLPGLNGENQKEPEQGERGEAGPP [R1R2]”, the “effect on FN-collagen type I binding” value in [1] is given as “blocked the binding of FN to collagen type I in a dose-dependent manner”. The “effect on A7r5 SMC growth” value in the test on A7r5 SMCs [2] (48–96 hours, in comparison with scrambled peptide, in words) is “significantly inhibited A7r5 SMC growth after 48–96 hours”. In addition, the “A7r5 SMC growth, cell number” value with A7r5 SMCs [2] (48hr, 10% FBS after serum starvation and 36 hours peptide treatment, hemocytometer, trypan blue, mean ± SD, n = 5) is 1.5 ± 0.224 x 10^5. The “U937 adhesion to HUVECs” value in the test on U937 cells / HUVECs [3] is 197697 ± 34184 cells per cm^2. Further, in the test with FN fibril, the “effect on FN fibril deposition/formation” value is given as “does not affect FN fibril deposition into the ECM; also recorded: does not alter FN fibril formation”. Also, the “effect on SMC migration (wound healing images)” value with A7r5 SMCs [4] (30 hours post PDGF-stimulation, versus scrambled peptide, in words) is listed as “cells migrated more slowly”. In addition, the “SMC migration (cell-free area at 0 h minus cell-free area at 30 hours)” value in the test on A7r5 SMCs [4] (A7r5 SMCs, 36 hours peptide pretreatment, 10 ng/ml PDGF-BB, 30 hours, mean ± SD, n = 3) amounted to 130149 ± 53295. Besides, the “effect on HUVEC cell number” value with HUVECs is on record as “No significant decrease”. In addition, the “effect on neointimal formation” value in test [5] (7 and 14 days post-ligation, 20 μM peptide in pluronic gel, periadventitial, in words) is “dramatic attenuation in injury-induced neointimal formation”. Moreover, in [5] (setting [7]), the “EEL Area” value is given as 64905 ± 3680 (n = 10) μm^2, the “Intima+Media” value is 29208 ± 884 (n = 10) μm^2, the “Intima/Media Ratio” value is listed as 0.0424 ± 0.0133 (n = 10) and the Lumen was 32038 ± 2870 (n = 10) μm^2. In addition, the “effect on intima-media area, EEL area and intimal/medial ratio” value in [5] (7 days and 14 days after ligation, compared to the control mice, in words) is “significantly reduced intima-media areas (Intima + Media), EEL area and intimal/medial ratios”. Besides, in test [5] (setting [8]), the “EEL Area” value is listed as 51482 ± 4981 (n = 9) μm^2, the “Intima+Media” value was 25706 ± 1220 (n = 9) μm^2, the “Intima/Media Ratio” value is 0.0709 ± 0.0231 (n = 9) and the Lumen is 25776 ± 4286 (n = 9) μm^2. Moreover, the “effect on lumenal area” value in test [5] (day 7 and 14 after injury, compared to the controls, in words) was “no significant decrease in the lumenal area”. Moreover, the “effect on FN intensity” value in the test with FN (7 and 14 days after ligation, R1R2 vs scrambled peptide, in words) is recorded as “no significant decrease of FN intensity”. In addition, in the test on FN (7 days after ligation, R1R2 n = 6, scrambled n = 6), the “FN IHC intensity in intima-media area” value came out at 0.153 ± 0.012. In the test on FN (14 days after ligation, R1R2 n = 7, scrambled n = 7), the “FN IHC intensity in intima-media area” value worked out at 0.309 ± 0.005. This sequence also showed a U937 transendothelial migration in the test with U937 cells / HUVECs [6] of 65633 ± 20412 cells per well.
